Legend:
[1] = system: Non-malignant HaCaT cells; assay: MTS cytotoxicity assay on HaCaT; type: cell-based; details: Homo sapiens, 72 hours of treatment
Protocol: Non-malignant HaCaT cells were seeded in 96-well plates together with the calix[4]arene of the formula (2). Cells were grown in RPMI-1640 supplemented with GlutaMAX™ (Gibco™) and fetal calf serum (FCS, 20%) and treated with a broad range of concentrations of the calix[4]arene of the formula (2). After 72 hours of treatment, the cytotoxicity was measured by means of the IC50 value, using the kit “CellTiter 96R AQuous One Solution Cell Proliferation Assay (MTS)” from Promega™. Following 30 minutes of incubation with the MTS reagent, the endpoint measurements were done in triplicate at 485 nm, using a fluorescence plate reader.

[2] = system: PC9 human lung cancer cells; assay: MTS cytotoxicity assay, combination with CuCl2, PC9; details: Homo sapiens, 72 h, read-out: percentage of cell viability
Protocol: PC9 human lung cancer cells were seeded in 96-well plates together with the calix[4]arene of the formula (2) and CuCl2. Cells were grown in RPMI-1640 supplemented with GlutaMAX™ (Gibco™) and fetal calf serum (FCS, 10%) treated with a broad range of concentrations of the calix[4]arene of the formula (2) or/and CuCl2 from Merck. After 72 hours of treatment, the cytotoxicity was measured by means of the IC50 value, using the kit “CellTiter 96R AQuous One Solution Cell Proliferation Assay (MTS)” from Promega™. Following 30 minutes of incubation with the MTS reagent, the endpoint measurements were done in triplicate at 485 nm, using a fluorescence plate reader.

[3] = system: Candida albicans yeast cells; assay: Minimal inhibitory concentration, yeast growth in 96 well plate; type: cell-based; details: in presence of 100 μM CuSO4, read-out: minimal inhibitory concentrations values
Protocol: The efficiency of a compound of interest on a bacterial strain is evaluated by measuring its minimal inhibitory concentration (hereafter abbreviated “MIC”). MICs are measured by following the bacterial growth in a 96 wells plate exposed to a range of concentrations of the compound of interest.
96 Well plates were filled with 20 μL of 1 mM CuSO4 solution, then 160 μL of growth media was added. Finally, 20 μL of DMSO solutions containing a range of concentrations of the tested calix[4]arene of the formula (2) was added. […] For each condition three wells were used. The top and bottom rows were used as control, the top row only contained Lysogeny broth and the bottom one contained the growth media, DMSO and CuSO4. The plates were placed in the incubator for 16 to 24 hours. The absorbance of each well was measured at 600 nm with a multiplate reader (Fluostar from Optima).
Additionally, the same protocol was repeated with Candida albican yeast cells. Instead of Lysogeny broth, Yeast Extract-Peptone-Dextrose (Bacteriological peptone, 20 g/L; Glucose, 20 g/L; Yeast extract, 10 g/L) was used as growing medium. […]

Non-malignant MSC cells = assay: MTS cytotoxicity assay on MSC; type: cell-based; details: 72 hours of treatment
Protocol: After 72 hours of treatment, the cytotoxicity was measured by means of the IC50 value, using the kit “CellTiter 96R AQuous One Solution Cell Proliferation Assay (MTS)” from Promega™. Following 30 minutes of incubation with the MTS reagent, the endpoint measurements were done in triplicate at 485 nm, using a fluorescence plate reader.

[4] = system: A549 human lung cancer cell line; assay: Inhibition of A549 cell proliferation (cell count); type: cell-based; details: 2 μM, until 72 hours
Protocol: The inhibition of a A549 human lung cancer cell line proliferation by the calix[4]arene of the formula (2) was determined by exposure of said A549 human lung cancer cell line to a concentration of 2 μM of the calix[4]arene of the formula (2) until 72 hours. The absolute number of cells were counted in the treated and untreated conditions before treatment (N0) and after 72 hours (Nt).
The FIG. 1 is a graph showing: • the profile of the proliferation index Nt/N0 of the A549 cells after exposure with the calix[4]arene of the formula (2) with respect to the time (i.e. the curve entitled “calix[4]arene (2)”), • the profile of the proliferation index Nt/N0 of the A549 cells without any exposure with the calix[4]arene of the formula (2) with respect to the time (i.e. the curve entitled “untreated”).
“Nt” is number of cells at time “t” and “No” is number of cells before treatment.

[5] = Cu^+ binding by 1H NMR titration; details: 1H NMR titration with Cu(MeCN)4BF4, CD3CN/CDCl3 4/1, 298 K
Protocol: Binding abilities and complexation constants of the examples of calix[4]arenes of the present invention and the comparative examples with Cu^+ were evaluated by ^1H NMR titrations at 298 K using copper(I)tetrakis(acetronitrile)tetrafluoroborate.
For example, for each separate calix[4]arene a stock solution of the tested calix[4]arene was prepared in a CD3CN/CDCl3, 4/1 mixture. Using this stock solution, a Cu(MeCN)4BF4 solution was prepared and added by steps of 0.25 equivalent of copper(I) up until 1 equivalent and then by steps of 0.5 equivalent until a total of at least 2 equivalents. ^1H NMR spectra were recorded at a 400 MHz spectrometer at 298 K for the stock solutions of the calix[4]arenes and after each addition of Cu(MeCN)4BF4.
Calix[4]arenes for which a gradual change of the chemical shifts of the ^1H NMR signals (>0.1 ppm for at least one of the signals) was observed upon addition of up to 4-5 equivalents of Cu(MeCN)4BF4 were considered to show weak binding.

[6] = system: PC9 human lung cancer cells; assay: MTS cytotoxicity assay on PC9; type: cell-based; details: PC9, 72 hours of treatment
Protocol: PC9 human lung cancer cells were seeded in 96-well plates together with the calix[4]arene of the formula (2). Cells were grown in RPMI-1640 supplemented with GlutaMAX™ (Gibco™) and fetal calf serum (FCS, 10%) and treated with a broad range of concentrations of the calix[4]arene of the formula (2). After 72 hours of treatment, the cytotoxicity was measured by means of the IC50 value, using the kit “CellTiter 96R AQuous One Solution Cell Proliferation Assay (MTS)” from Promega™. Following 30 minutes of incubation with the MTS reagent, the endpoint measurements were done in triplicate at 485 nm, using a fluorescence plate reader.
PC9 human lung cancer cells were seeded in 96-well plates together with the 2nd comparative example of the formula (XI). Cells were grown in RPMI-1640 supplemented with GlutaMAX™ (Gibco™) and fetal calf serum (FCS, 10%) and treated with a broad range of concentrations of the compound of the 2nd comparative example of the formula (XI). After 72 hours of treatment, the cytotoxicity was measured by means of the IC50 value, using the kit “CellTiter 96R AQuous One Solution Cell Proliferation Assay (MTS)” from Promega™. Following 30 minutes of incubation with the MTS reagent, the endpoint measurements were done in triplicate at 485 nm, using a fluorescence plate reader. […]

[7] = system: H322 lung carcinoma cells; assay: MTS cytotoxicity assay, combination with CuCl2, H322; details: NCI-H322, 72 h, read-out: percentage of cell viability
Protocol: H322 lung carcinoma cells were seeded in 96-well plates together with the calix[4]arene of the formula (2) and CuCl2. Cells were grown in RPMI-1640 supplemented with GlutaMAX™ (Gibco™) and fetal calf serum (FCS, 10%) treated with a broad range of concentrations of the calix[4]arene of the formula (2) or/and CuCl2 from Merck. After 72 hours of treatment, the cytotoxicity was measured by means of the IC50 value, using the kit “CellTiter 96R AQuous One Solution Cell Proliferation Assay (MTS)” from Promega™ Following 30 minutes of incubation with the MTS reagent, the endpoint measurements were done in triplicate at 485 nm, using a fluorescence plate reader.

[8] = system: PC9 human lung cancer cell line; assay: Inhibition of PC9 cell proliferation (cell count); type: cell-based; details: 3 μM, until 72 hours
Protocol: The inhibition of a PC9 human lung cancer cell line proliferation by the calix[4]arene of the formulation (2) was determined by exposure of said PC9 human lung cancer cell line to a concentration of 3 μM of the compound of the formula (2) until 72 hours. The absolute number of cells were counted in the treated and untreated conditions before treatment (N0) and after 72 hours (Nt).
The FIG. 2 is a graph showing: • the profile of the proliferation index Nt/N0 of the PC9 cells after exposure with the calix[4]arene of the formula (2) with respect to the time (i.e. the curve entitled “calix[4]arene (2)”), • the profile of the proliferation index Nt/N0 of the PC9 cells without any exposure with the calix[4]arene of the formula (2) with respect to the time (i.e. the curve entitled “untreated”).

In the case of `CCCOc1c2cccc1Cc1cccc(c1OCc1nccn1C)Cc1cccc(c1OCCC)Cc1cccc(c1OCc1nccn1C)C2` [(2)], the IC50 [1] is reported as 1050 nM, the viability at 0.1 µM [2] is reported as 99.9% and the viability at 0.5 µM [2] is reported as 93.1%. It also gave a viability at 1 µM [2] of 75.8%, a viability at 1.5 µM [2] of 24.4% and an MIC [3] of 0.8 µM. For the same molecule, the IC50 (Non-malignant MSC cells) was 1010 nM, the “proliferation index Nt/N0 (FIG. 1)” value [4] was “clearly inhibits the proliferation” and the “Cu^+ binding” value [5] was “Strong binding (means an affinity constant (Ka) equal or greater than 10^5 M^−1)”. For the same molecule, the IC50 [6] was 2060 nM, the viability at 0.1 µM [7] was 96.5% and the viability at 0.5 µM [7] was 94.1%. For the same molecule, the viability at 1 µM [7] was 87%, the viability at 1.5 µM [7] was 62.6% and the “proliferation index Nt/N0 (FIG. 2)” value [8] was “clearly inhibits the proliferation”.

Source: US20260015339A1, “CALIX[4]ARENES WITH HIGH ANTICANCER ACTIVITY” (UNIVERSITE GRENOBLE ALPES, priority 2023, published 2026)
